Measurements: patent publication US20180319810A1, “SUBSTITUTED BRIDGED UREA ANALOGS AS SIRTUIN MODULATORS” (GlaxoSmithKline Intellectual Property (No.2) Limited, priority 2014, published 2018)

Target: T1, SIRT1 (Homo sapiens, UniProt Q96EB6)
T1 sequence (Q96EB6 1-747): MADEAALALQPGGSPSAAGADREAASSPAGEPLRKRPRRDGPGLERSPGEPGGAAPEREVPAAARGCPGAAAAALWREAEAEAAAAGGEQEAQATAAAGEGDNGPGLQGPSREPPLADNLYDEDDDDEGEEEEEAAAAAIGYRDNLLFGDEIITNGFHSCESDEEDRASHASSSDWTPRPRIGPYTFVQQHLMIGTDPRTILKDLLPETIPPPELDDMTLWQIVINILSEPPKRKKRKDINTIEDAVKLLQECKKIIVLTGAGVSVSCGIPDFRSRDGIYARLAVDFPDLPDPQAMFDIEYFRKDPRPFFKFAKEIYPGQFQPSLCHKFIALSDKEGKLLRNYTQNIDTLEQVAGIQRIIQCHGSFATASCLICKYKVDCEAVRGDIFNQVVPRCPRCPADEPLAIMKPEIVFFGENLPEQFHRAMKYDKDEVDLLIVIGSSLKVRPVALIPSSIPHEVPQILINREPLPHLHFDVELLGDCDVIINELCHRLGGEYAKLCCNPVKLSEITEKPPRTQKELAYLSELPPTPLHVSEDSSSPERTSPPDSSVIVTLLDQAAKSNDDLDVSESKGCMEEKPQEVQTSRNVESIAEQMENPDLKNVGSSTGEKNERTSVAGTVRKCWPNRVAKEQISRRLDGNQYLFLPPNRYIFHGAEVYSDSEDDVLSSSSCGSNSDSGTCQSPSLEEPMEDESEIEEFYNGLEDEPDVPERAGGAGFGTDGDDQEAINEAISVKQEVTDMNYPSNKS
Test: Trp mass spectrometry assay of SIRT1 activation
Format: biochemical
Details: Trp peptide Ac-R-H-K-K(Ac)-W-NH2 0.5 μM, 120 μM βNAD+, 10 nM SIRT1, 25 min, 25° C.

Structure (SMILES)	TRP Activity (EC1.5, concentration of compound required to increase SIRT1 activity by 50% over control)	TRP MAX RESP (percent maximum fold activation relative to control)
Cc1nc(-c2cccc(C(F)(F)F)c2)nc2c1N1CC[C@@H](C1)N2C(=O)Nc1cncc(OC[C@H](O)CO)c1 [Example 45, (8S)—N-(5-((R)-2,3-dihydroxypropoxy)pyridin-3-yl)-4-methyl-2-(3-(trifluoromethyl)phenyl)-7,8-dihydro-5,8-methanopyrimido[4,5-b][1,4]diazepine-9(6H)-carboxamide]	A (EC1.5<1 μM)	A (Fold activation ≥150%)
Cc1nc(-c2cccc(C(F)(F)F)c2)nc2c1N1CC[C@@H](C1)N2C(=O)Nc1cncc(OC[C@@H](O)CO)c1 [Example 46, (8S)—N-(5-((S)-2,3-dihydroxypropoxy)pyridin-3-yl)-4-methyl-2-(3-(trifluoromethyl)phenyl)-7,8-dihydro-5,8-methanopyrimido[4,5-b][1,4]diazepine-9(6H)-carboxamide]	B (EC1.5 1-25 μM)	A (Fold activation ≥150%)
Cc1nc(-c2cccc(C(F)(F)F)c2)nc2c1N1CC[C@@H](C1)N2C(=O)Nc1nccc(OC[C@@H](O)CO)n1 [Example 47, (8S)—N-(4-((S)-2,3-dihydroxypropoxy)pyrimidin-2-yl)-4-methyl-2-(3-(trifluoromethyl)phenyl)-7,8-dihydro-5,8-methanopyrimido[4,5-b][1,4]diazepine-9(6H)-carboxamide]	B (EC1.5 1-25 μM)	A (Fold activation ≥150%)
Cc1nc(-c2cccc(C(F)(F)F)c2)nc2c1N1CC[C@@H](C1)N2C(=O)Nc1ccc(OC[C@H](O)CO)cn1 [Example 48, (8S)—N-(5-((R)-2,3-dihydroxypropoxy)pyridin-2-yl)-4-methyl-2-(3-(trifluoromethyl)phenyl)-7,8-dihydro-5,8-methanopyrimido[4,5-b][1,4]diazepine-9(6H)-carboxamide]	B (EC1.5 1-25 μM)	A (Fold activation ≥150%)
O=C(Nc1cnc(OC[C@H](O)CO)nc1)N1c2nc(-c3cccc(C(F)(F)F)c3)ncc2N2CC[C@H]1C2 [Example 49, (8S)—N-(2-((R)-2,3-dihydroxypropoxy)pyrimidin-5-yl)-2-(3-(trifluoromethyl)phenyl)-7,8-dihydro-5,8-methanopyrimido[4,5-b][1,4]diazepine-9(6H)-carboxamide]	B (EC1.5 1-25 μM)	A (Fold activation ≥150%)
O=C(Nc1cncc(OC[C@@H](O)CO)n1)N1c2nc(-c3cccc(C(F)(F)F)c3)ncc2N2CC[C@H]1C2 [Example 50, (8S)—N-(6-((S)-2,3-dihydroxypropoxy)pyrazin-2-yl)-2-(3-(trifluoromethyl)phenyl)-7,8-dihydro-5,8-methanopyrimido[4,5-b][1,4]diazepine-9(6H)-carboxamide]	B (EC1.5 1-25 μM)	A (Fold activation ≥150%)
O=C(Nc1nccc(OC[C@@H](O)CO)n1)N1c2nc(-c3cccc(C(F)(F)F)c3)ncc2N2CC[C@H]1C2 [Example 51, (8S)—N-(4-((S)-2,3-dihydroxypropoxy)pyrimidin-2-yl)-2-(3-(trifluoromethyl)phenyl)-7,8-dihydro-5,8-methanopyrimido[4,5-b][1,4]diazepine-9(6H)-carboxamide]	B (EC1.5 1-25 μM)	A (Fold activation ≥150%)
O=C(NC1CCCC1)N1c2nc(-c3cccc(C(F)(F)F)c3)ncc2N2CC[C@H]1C2 [Example 52, (8S)—N-cyclopentyl-2-(3-(trifluoromethyl)phenyl)-7,8-dihydro-5,8-methanopyrimido[4,5-b][1,4]diazepine-9(6H)-carboxamide]	B (EC1.5 1-25 μM)	A (Fold activation ≥150%)
O=C(Nc1cnc(OC[C@@H](O)CO)nc1)N1c2nc(-c3cccc(C(F)(F)F)c3)ncc2N2CC[C@H]1C2 [Example 53, (8S)—N-(2-((S)-2,3-dihydroxypropoxy)pyrimidin-5-yl)-2-(3-(trifluoromethyl)phenyl)-7,8-dihydro-5,8-methanopyrimido[4,5-b][1,4]diazepine-9(6H)-carboxamide]	B (EC1.5 1-25 μM)	A (Fold activation ≥150%)
O=C(Nc1cnnc(OC[C@@H](O)CO)c1)N1c2nc(-c3cccc(C(F)(F)F)c3)ncc2N2CC[C@H]1C2 [Example 54, (8S)—N-(6-((S)-2,3-dihydroxypropoxy)pyridazin-4-yl)-2-(3-(trifluoromethyl)phenyl)-7,8-dihydro-5,8-methanopyrimido[4,5-b][1,4]diazepine-9(6H)-carboxamide]	B (EC1.5 1-25 μM)	A (Fold activation ≥150%)
Cc1nc(-c2cccc(C(F)(F)F)c2)nc2c1N1CC[C@@H](C1)N2C(=O)Nc1cnc(OC[C@H](O)CO)nc1 [Example 55, (8S)—N-(2-((R)-2,3-dihydroxypropoxy)pyrimidin-5-yl)-4-methyl-2-(3-(trifluoromethyl)phenyl)-7,8-dihydro-5,8-methanopyrimido[4,5-b][1,4]diazepine-9(6H)-carboxamide]	B (EC1.5 1-25 μM)	A (Fold activation ≥150%)
Cc1nc(-c2cccc(C(F)(F)F)c2)nc2c1N1CC[C@@H](C1)N2C(=O)Nc1nccc(OC[C@H](O)CO)n1 [Example 56, (8S)—N-(4-((R)-2,3-dihydroxypropoxy)pyrimidin-2-yl)-4-methyl-2-(3-(trifluoromethyl)phenyl)-7,8-dihydro-5,8-methanopyrimido[4,5-b][1,4]diazepine-9(6H)-carboxamide]	B (EC1.5 1-25 μM)	A (Fold activation ≥150%)
Cc1nc(-c2cccc(C(F)(F)F)c2)nc2c1N1CC[C@@H](C1)N2C(=O)Nc1ccnc(OC[C@@H](O)CO)c1 [Example 57, (8S)—N-(2-((S)-2,3-dihydroxypropoxy)pyridin-4-yl)-4-methyl-2-(3-(trifluoromethyl)phenyl)-7,8-dihydro-5,8-methanopyrimido[4,5-b][1,4]diazepine-9(6H)-carboxamide]	B (EC1.5 1-25 μM)	A (Fold activation ≥150%)
O=C(NCC(F)(F)F)c1ncc2c(n1)N(C(=O)Nc1ccccn1)[C@H]1CCN2C1 [Example 58, (8S)—N9-(pyridin-2-yl)-N2-(2,2,2-trifluoroethyl)-7,8-dihydro-5,8-methano pyrimido[4,5-b][1,4]diazepine-2,9(6H)-dicarboxamide]	B (EC1.5 1-25 μM)	A (Fold activation ≥150%)
C[C@@H](NC(=O)c1ncc2c(n1)N(C(=O)Nc1ccccn1)[C@H]1CCN2C1)C(F)(F)F [Example 59, (8S)—N9-(pyridin-2-yl)-N2-((R)-1,1,1-trifluoropropan-2-yl)-7,8-dihydro-5,8-methanopyrimido[4,5-b][1,4]diazepine-2,9(6H)-dicarboxamide]	A (EC1.5<1 μM)	A (Fold activation ≥150%)
Cc1ccc2c(NC(=O)N3c4nc(C(=O)N[C@H](C)C(F)(F)F)nc(C)c4N4CC[C@H]3C4)n[nH]c2n1 [Example 60, (8S)-4-methyl-N9-(6-methyl-1H-pyrazolo[3,4-b]pyridin-3-yl)-N2-((R)-1,1,1-trifluoropropan-2-yl)-7,8-dihydro-5,8-methanopyrimido[4,5-b][1,4]diazepine-2,9(6H)-dicarboxamide]	B (EC1.5 1-25 μM)	A (Fold activation ≥150%)
Cc1ncc(-c2ccnc(NC(=O)N3c4nc(C(=O)NCC(F)(F)F)ncc4N4CC[C@H]3C4)c2)o1 [Example 61, (8S)—N9-(4-(2-methyloxazol-5-yl)-pyridin-2-yl)-N2-(2,2,2-trifluoroethyl)-7,8-dihydro-5,8-methanopyrimido-[4,5-b][1,4]-diazepine-2,9(6H)-dicarboxamide]	B (EC1.5 1-25 μM)	A (Fold activation ≥150%)
